Experimental data published in patent US11285147B2, “Neuroprotective agents for treatment of neurodegenerative diseases” (WAYNE STATE UNIVERSITY, priority 2018, dated 2022).

Key:
Aβ1-42 peptide = molecular target: T1, Aβ1-42 peptide (Homo sapiens, UniProt P05067); test: Inhibition of Aβ1-42 aggregation, ThT fluorescence; assay type: biochemical; settings: Aβ1-42 10 μM, test compounds 20 μM, 24 h
T1 construct: disaggregation activity of Aβ1-42 peptide
Procedure: (§1) FIGS. 3A and 3B. Inhibition and dissociation of Aβ1-42 oligomer formation by: a) ThT fluorescence of Aβ1-42 (10 μM) with or without incubation with test compounds (20 μM) for 24 h. The ThT fluorescence of Aβ1-42 at 0 h was taken as 100%. b) Aβ1-42 fibrils (10 μM) were incubated with test compounds (20 μM) for a period of 24 h. The ThT fluorescence of Aβ1-42 aggregates at 0 h was considered as 100%
as §1, with “3B show inhibition” for “3B. Inhibition”
(§2) Similar to the effect of the drugs on α-syn, interaction of compounds with Aβ1-42 peptide clearly indicated a significant effect in inhibiting aggregation in a time dependent manner as indicated by decrease in ThT activity (FIG. 3a). Similarly, test compounds were able to decrease ThT activity of preformed Aβ aggregates in a time dependent manner, reflecting its effect in disrupting structure of aggregates (FIG. 3b). On the other hand, incubation of aggregates itself led to a gradual increase in ThT activity (FIG. 3b).

αSN (alpha synuclein) = αSN (alpha synuclein) (Homo sapiens, UniProt P37840); test: Inhibition of αSN fibrillization, ThT fluorescence assay; assay type: biochemical
Procedure: FIGS. 2A-B. (A) Inhibition of aSN fibrillization by D-687 and D-688. The drugs were incubated with aSN over a period of six days and the fibrilization was measured by ThT fluorescence assay. Data Values shown are means±SEMs of three independent experiments. (B) PC12 cells were treated with 10 μM prefabricated aSN aggregates formed in presence of drugs collected at day 0 and day 6. Values shown are means±SEMs of three independent experiments performed in 4-6 replicates. One way ANOVA analysis followed by Tukey's Multiple Comparison post hoc test were performed. (*p<0.01 compared to the control).
We assessed the ability of our compounds, D-687 and D-688, to alter aggregation and cytotoxicity after co-incubating αSN with these drugs for 6 days followed by evaluation of ThT fluorescence activity and cell viability experiment with the PC12 cells. […] In order to maintain identical condition, cellular viability was determined by using samples from various experiments diluted to maintain a final concentration of 10 μM of αSN and 20 μM of drugs.
FIG. 2 provides (A) Inhibition of aSN fibrillization by D-687 and D-688. The drugs were incubated with aSN over a period of six days and the fibrilization was measured by ThT fluorescence assay. Data Values shown are means±SEMs of three independent experiments. […]

Aβ1-42 fibrils = molecular target: T2, Aβ1-42 fibrils (Homo sapiens, UniProt P05067); test: Dissociation of preformed Aβ1-42 aggregates, ThT fluorescence; assay type: biochemical; settings: Aβ1-42 fibrils 10 μM, test compounds 20 μM, 24 h
T2 construct: disaggregation activity of Aβ1-42 peptide
Procedure: as §1
as §1, with “3B show inhibition” for “3B. Inhibition”
as §2

D3 receptor = D3 receptor (UniProt P19020); assay type: binding; settings: read-out: Ki (nM) D3, [3H]spiroperidol; cloned D3 in HEK-293 cells; mean ± SEM of 3-6 experiments
D2L receptor = D2L receptor (Rattus norvegicus, UniProt P61169); test: biochemical
D2L receptor, sequence (P61169 whole entry): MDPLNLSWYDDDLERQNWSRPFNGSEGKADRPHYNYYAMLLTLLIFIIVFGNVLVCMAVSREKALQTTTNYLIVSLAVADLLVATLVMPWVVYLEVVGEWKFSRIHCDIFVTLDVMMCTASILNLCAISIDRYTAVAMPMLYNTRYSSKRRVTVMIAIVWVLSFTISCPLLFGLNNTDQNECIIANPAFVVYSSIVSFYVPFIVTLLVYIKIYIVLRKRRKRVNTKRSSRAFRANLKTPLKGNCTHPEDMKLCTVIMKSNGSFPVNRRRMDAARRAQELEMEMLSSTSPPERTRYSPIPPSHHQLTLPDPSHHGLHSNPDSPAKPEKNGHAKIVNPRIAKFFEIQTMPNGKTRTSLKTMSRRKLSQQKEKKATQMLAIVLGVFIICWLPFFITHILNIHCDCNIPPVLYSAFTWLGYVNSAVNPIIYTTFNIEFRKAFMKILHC

T2 sequence (P05067 672-713 limits assumed): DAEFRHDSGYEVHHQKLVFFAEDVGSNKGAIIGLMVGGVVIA
T1 sequence (P05067 672-713 limits assumed): as above

Compound | Inhibition of aggregation of Aβ1-42 peptide (Aβ1-42 peptide) | Inhibition of aggregation of aSN protein (overall conclusion) (αSN (alpha synuclein)) | Disaggregation of preformed Aβ1-42 aggregates (Aβ1-42 fibrils) | Ki (D3 receptor) [nM] | Ki (D2L receptor) [nM]
CCN(CC)CCN1CCN(c2ccc(-c3ccc(O)c(O)c3)cc2)CC1 [Compound D690, 4′-[4-(2-Diethylamino-ethyl)-piperazin-1-yl]-biphenyl-3,4-diol] | potently inhibited aggregation | potently inhibited aggregation | disaggregate |  | 
4′-[4-(2-Diisopropylamino-ethyl)-piperazin-1-yl]-biphenyl-3,4-diol [Compound D-687] | potently inhibited aggregation | potently inhibited aggregation | disaggregate |  | 
CCCN(CCc1cc(O)c(CCN(CCC)[C@H]2CCc3nc(N)sc3C2)cc1O)[C@H]1CCc2nc(N)sc2C1 [12 (D-673), 2,5-bis(2-(((S)-2-amino-4,5,6,7-tetrahydrobenzo[d]thiazol-6-yl)(propyl)amino)-ethyl)benzene-1,4-diol] |  |  |  | 6.87 ± 0.11 | 54.7 ± 3.3
